Experimental data reported in patent US10336702B2, “Pharmaceutically active compounds” (BERGENBIO ASA, priority 2015, dated 2019).

Experiments:
p-Akt3 in WM115 cells = molecular target: T1, p-Akt3 in WM115 cells (Homo sapiens, UniProt Q9Y243); assay: Phospho-Akt cellular SureFire assay, p-Akt3 in WM115 cells; format: cell-based; settings: insulin stimulated, read-out: Biological Assay 2 IC50 (nM) Akt3 WM115
T1 construct: SureFire assays to detect cellular p-Akt1, p-Akt2 and p-Akt3 levels in WM115 cells (Akt2/3) and LNCaP cells (Akt1); endogenous in cells; host or cells: WM115 (ECACC 91061232), insulin-stimulated
T1 sequence (Q9Y243 whole entry): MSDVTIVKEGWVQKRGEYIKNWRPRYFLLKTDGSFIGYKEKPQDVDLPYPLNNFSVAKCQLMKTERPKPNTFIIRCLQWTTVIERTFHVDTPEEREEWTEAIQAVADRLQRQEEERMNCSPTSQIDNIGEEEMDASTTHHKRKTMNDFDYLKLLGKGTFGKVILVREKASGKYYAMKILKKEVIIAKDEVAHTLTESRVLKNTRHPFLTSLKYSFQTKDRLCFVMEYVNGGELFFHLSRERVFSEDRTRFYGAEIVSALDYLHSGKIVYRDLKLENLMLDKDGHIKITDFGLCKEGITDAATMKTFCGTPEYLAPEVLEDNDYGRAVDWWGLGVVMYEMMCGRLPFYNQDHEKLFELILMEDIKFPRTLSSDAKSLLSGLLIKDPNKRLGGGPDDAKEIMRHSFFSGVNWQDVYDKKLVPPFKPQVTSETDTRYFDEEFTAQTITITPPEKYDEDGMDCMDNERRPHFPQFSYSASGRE
How it was run: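 pThr308-Akt3 in lysates was quantified by bead-proximity SureFire detection, pairing a phospho-specific antibody with a total Akt3 antibody. Before lysis, WM115 cells in 0.1% FBS medium were treated for 15 min at 37 °C with compound (final DMSO 0.3%), following a 10 min stimulation with 100 nM insulin. IC50 was obtained by 4-parameter fitting.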

Akt3 = molecular target: T2, Akt3 (Homo sapiens, UniProt Q9Y243); assay: Akt activation assay (PDK1-mediated activation, LANCE Ultra crosstide TR-FRET), Akt3; format: biochemical; settings: read-out: Biological Assay 1 IC50 (nM) Akt3
T2 construct: unspecified tag, removed (detagged) (cleaved yes); purchased SignalChem and Proteros (Akt3); Merck Millipore (PDK1) 14-452 (PDK1); none given for Akt3
T2 sequence (Q9Y243 whole entry): as above
How it was run: (§1)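 This TR-FRET readout (Eu-anti-phospho-crosstide antibody, 665/615 nm) measured PDK1-driven activation of Akt. Compound was first preincubated with each Akt isoform: Akt1 5 nM; Akt2 15 nM SignalChem or 5 nM Proteros; Akt3 3 nM SignalChem or 5 nM Proteros. Reactions then ran 30 min with 5 nM PDK1, lipid vesicles containing 0.55 µM PtdIns(3,4,5)P3, 100 µM ATP and 100 nM crosstide at pH 7.5, and IC50 came from a 4-parameter equation.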

p-Akt1 in LNCaP cells = molecular target: T3, p-Akt1 in LNCaP cells (Homo sapiens, UniProt P31749); assay: Phospho-Akt cellular SureFire assay, p-Akt1 in LNCaP cells; format: cell-based; settings: read-out: Biological Assay 2 IC50 (nM) Akt1 LNCaP
T3 construct: SureFire assays to detect cellular p-Akt1, p-Akt2 and p-Akt3 levels in WM115 cells (Akt2/3) and LNCaP cells (Akt1); endogenous in cells; host or cells: LNCaP (ECACC 89110211)
T3 sequence (P31749 whole entry): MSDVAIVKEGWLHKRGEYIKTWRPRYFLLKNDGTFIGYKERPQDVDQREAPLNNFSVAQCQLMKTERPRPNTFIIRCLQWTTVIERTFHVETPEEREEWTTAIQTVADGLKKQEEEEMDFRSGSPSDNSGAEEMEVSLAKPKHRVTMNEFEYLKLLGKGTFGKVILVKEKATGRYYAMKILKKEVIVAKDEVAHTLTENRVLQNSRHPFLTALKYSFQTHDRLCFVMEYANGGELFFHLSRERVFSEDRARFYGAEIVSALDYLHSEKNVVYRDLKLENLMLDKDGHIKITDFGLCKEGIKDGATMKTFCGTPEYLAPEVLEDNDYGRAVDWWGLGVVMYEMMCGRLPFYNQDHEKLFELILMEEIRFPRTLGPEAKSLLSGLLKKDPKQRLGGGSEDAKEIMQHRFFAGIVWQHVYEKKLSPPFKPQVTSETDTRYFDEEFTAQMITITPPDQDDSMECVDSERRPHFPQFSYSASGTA
How it was run: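 Phospho-Thr308 Akt1 detected by AlphaScreen SureFire proximity beads in LNCaP lysates after 15 min compound treatment at 37 °C in 0.1% FBS medium, unstimulated, 0.3% DMSO. Cells plated at 5×10^4/well overnight; IC50 from a 4-parameter equation.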

Akt1 = molecular target: T4, Akt1 (Homo sapiens, UniProt P31749); assay: Akt activation assay (PDK1-mediated activation, LANCE Ultra crosstide TR-FRET), Akt1; format: biochemical; settings: read-out: Biological Assay 1 IC50 (nM) Akt1
T4 construct: unspecified tag, removed (detagged) (cleaved yes); purchased SignalChem and Proteros (Akt1); Merck Millipore (PDK1) 14-452 (PDK1); none given for Akt1
T4 sequence (P31749 whole entry): as above
How it was run: as §1

Akt2 = molecular target: T5, Akt2 (Homo sapiens, UniProt P31751); assay: Akt activation assay (PDK1-mediated activation, LANCE Ultra crosstide TR-FRET), Akt2; format: biochemical; settings: read-out: Biological Assay 1 IC50 (nM) Akt2
T5 construct: unspecified tag, removed (detagged) (cleaved yes); purchased SignalChem and Proteros (Akt2); Merck Millipore (PDK1) 14-452 (PDK1); none given for Akt2
T5 sequence (P31751 whole entry): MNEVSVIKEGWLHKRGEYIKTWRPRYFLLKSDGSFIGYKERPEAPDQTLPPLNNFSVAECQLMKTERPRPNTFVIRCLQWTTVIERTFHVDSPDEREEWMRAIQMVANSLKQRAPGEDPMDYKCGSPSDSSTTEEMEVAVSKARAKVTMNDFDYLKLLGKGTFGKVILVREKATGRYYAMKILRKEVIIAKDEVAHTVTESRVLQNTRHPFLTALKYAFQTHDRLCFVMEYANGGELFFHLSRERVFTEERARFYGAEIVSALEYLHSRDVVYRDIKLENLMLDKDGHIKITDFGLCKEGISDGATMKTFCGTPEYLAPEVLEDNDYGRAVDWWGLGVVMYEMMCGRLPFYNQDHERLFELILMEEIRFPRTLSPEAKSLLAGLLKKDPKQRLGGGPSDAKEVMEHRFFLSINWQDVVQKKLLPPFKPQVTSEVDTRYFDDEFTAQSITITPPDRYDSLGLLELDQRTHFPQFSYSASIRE
How it was run: as §1

p-Akt2 in WM115 cells = molecular target: T6, p-Akt2 in WM115 cells (Homo sapiens, UniProt P31751); assay: Phospho-Akt cellular SureFire assay, p-Akt2 in WM115 cells; format: cell-based; settings: insulin stimulated, read-out: Biological Assay 2 IC50 (nM) Akt2 WM115
T6 construct: SureFire assays to detect cellular p-Akt1, p-Akt2 and p-Akt3 levels in WM115 cells (Akt2/3) and LNCaP cells (Akt1); endogenous in cells; host or cells: WM115 (ECACC 91061232), insulin-stimulated
T6 sequence (P31751 whole entry): as above
How it was run: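 Readout is a bead-proximity SureFire assay pairing a pThr308 Akt antibody with a total Akt2 antibody, lysate and beads incubated 2 h plus 2 h at room temperature in the dark. Before lysis, serum-starved WM115 cells received 100 nM insulin (10 min), then test compound (15 min, 0.3% DMSO); IC50 by 4-parameter equation.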

COC(=O)N(C)[C@H]1CC[C@H](CC(=O)Nc2cc(-c3ccsc3)c(-c3ccc([C@]4(N)C[C@](C)(O)C4)cc3)nn2)CC1 [Example 84, Methyl (trans-4-(2-((6-(4-(trans-1-amino-3-hydroxy-3-methylcyclobutyl)phenyl)-5-(thiophen-3-yl)pyridazin-3-yl)amino)-2-oxoethyl)cyclohexyl)(methyl)carbamate]
IC50 (p-Akt3 in WM115 cells): 8 nM
IC50 (Akt3): 5 nM
IC50 (p-Akt1 in LNCaP cells): > 19000 nM
IC50 (Akt1): 2600 nM
IC50 (Akt2): 140 nM
IC50 (p-Akt2 in WM115 cells): 830 nM

CC(=O)N(C(C)C)[C@H]1CC[C@H](CC(=O)Nc2cc(-c3ccccc3)c(-c3ccc([C@]4(N)C[C@](C)(O)C4)cc3)cn2)CC1 [Example 102, N-(5-(4-(trans-1-amino-3-hydroxy-3-methylcyclobutyl)phenyl)-4-phenylpyridin-2-yl)-2-(trans-4-(N-isopropylacetamido)cyclohexyl)acetamide]
IC50 (p-Akt3 in WM115 cells): 57 nM
IC50 (Akt3): 16 nM
IC50 (p-Akt1 in LNCaP cells): 1800 nM
IC50 (Akt1): 4100 nM
IC50 (Akt2): 140 nM
IC50 (p-Akt2 in WM115 cells): 1700 nM

CC(=O)N[C@H]1CC[C@H](CC(=O)Nc2cnc(-c3ccc(C4(N)CCC4)cc3)c(-c3ccsc3C)c2)CC1 [Example 18, 2-(trans-4-acetamidocyclohexyl)-N-(6-(4-(1-aminocyclobutyl)phenyl)-5-(2-methylthiophen-3-yl)pyridin-3-yl)acetamide]
IC50 (p-Akt3 in WM115 cells): 1100 nM
IC50 (Akt3): 1300 nM
IC50 (p-Akt1 in LNCaP cells): > 30000 nM
IC50 (Akt1): > 30000 nM
IC50 (Akt2): 6900 nM
IC50 (p-Akt2 in WM115 cells): 14000 nM

N-(6-(4-(trans-1-amino-3-hydroxy-3-methylcyclobutyl)phenyl)-5-phenylpyridin-3-yl)-2-(trans-4-(N-ethylacetamido)cyclohexyl)acetamide [Example 119]
IC50 (p-Akt3 in WM115 cells): 22 nM
IC50 (Akt3): 5 nM
IC50 (p-Akt1 in LNCaP cells): 2300 nM
IC50 (Akt1): 5900 nM
IC50 (Akt2): 70 nM
IC50 (p-Akt2 in WM115 cells): 410 nM

CC(=O)N[C@H]1CC[C@H](CC(=O)Nc2cnc(-c3ccc([C@H](N)C(F)F)cc3)c(-c3ccccc3)c2)CC1 [Example A12, 2-(trans-4-acetamidocyclohexyl)-N-(6-(4-((S)-1-amino-2,2-difluoroethyl)phenyl)-5-phenylpyridin-3-yl)acetamide]
IC50 (p-Akt3 in WM115 cells): 590 nM
IC50 (Akt3): 4500 nM
IC50 (p-Akt1 in LNCaP cells): > 20000 nM
IC50 (Akt1): > 30000 nM
IC50 (Akt2): 16000 nM
IC50 (p-Akt2 in WM115 cells): 24000 nM

CC(=O)N(C)[C@H]1CC[C@H](CC(=O)Nc2cc(-c3ccccc3)c(-c3ccc(C4(N)CC4)cc3)nn2)CC1 [Example 72, N-(6-(4-(1-aminocyclopropyl)phenyl)-5-phenylpyridazin-3-yl)-2-(trans-4-(N-methylacetamido)cyclohexyl)acetamide]
IC50 (p-Akt3 in WM115 cells): 35 nM
IC50 (Akt3): 10 nM
IC50 (p-Akt1 in LNCaP cells): > 7500 nM
IC50 (Akt1): > 22000 nM
IC50 (Akt2): 460 nM
IC50 (p-Akt2 in WM115 cells): 1400 nM

COC(=O)N[C@H]1CC[C@H](CC(=O)Nc2cnc(-c3ccc(C4(N)CC(F)(F)C4)cc3)c(-c3ccccc3)c2)CC1 [Example A4, Methyl (trans-4-(2-((6-(4-(1-amino-3,3-difluorocyclobutyl)phenyl)-5-phenylpyridin-3-yl)amino)-2-oxoethyl)cyclohexyl)carbamate]
IC50 (p-Akt3 in WM115 cells): 440 nM
IC50 (Akt3): 630 nM
IC50 (p-Akt1 in LNCaP cells): > 30000 nM
IC50 (Akt1): 11000 nM
IC50 (Akt2): 2400 nM
IC50 (p-Akt2 in WM115 cells): 7600 nM

CC(=O)N(C)[C@H]1CC[C@H](CC(=O)Nc2cnc(-c3ccc(C4(N)CCC4)cc3)c(-c3ccccc3)c2)CC1 [Example 10, N-(6-(4-(1-aminocyclobutyl)phenyl)-5-phenylpyridin-3-yl)-2-(trans-4-(N-methylacetamido)cyclohexyl)acetamide]
IC50 (p-Akt3 in WM115 cells): 39 nM
IC50 (Akt3): 30 nM
IC50 (p-Akt1 in LNCaP cells): 6700 nM
IC50 (Akt1): 6200 nM
IC50 (Akt2): 260 nM
IC50 (p-Akt2 in WM115 cells): 970 nM

CN(C(=O)C1CC1)[C@H]1CC[C@H](CC(=O)Nc2cnc(-c3ccc(C(C)(C)N)c(F)c3)c(-c3ccccc3)c2)CC1 [Example 53, N-(trans-4-(2-((6-(4-(2-aminopropan-2-yl)-3-fluorophenyl)-5-phenylpyridin-3-yl)amino)-2-oxoethyl)cyclohexyl)-N-methylcyclopropanecarboxamide]
IC50 (p-Akt3 in WM115 cells): 680 nM
IC50 (Akt3): 4100 nM
IC50 (p-Akt1 in LNCaP cells): > 30000 nM
IC50 (Akt1): > 30000 nM
IC50 (Akt2): > 30000 nM
IC50 (p-Akt2 in WM115 cells): 18000 nM

CC(=O)N(C)[C@H]1CC[C@H](CC(=O)Nc2cc(-c3ccccc3F)c(-c3ccc(C4(N)CCC4)cc3)cn2)CC1 [Example A62, N-(5-(4-(1-aminocyclobutyl)phenyl)-4-(2-fluorophenyl)pyridin-2-yl)-2-(trans-4-(N-methylacetamido)cyclohexyl)acetamide]
IC50 (p-Akt3 in WM115 cells): 81 nM
IC50 (Akt3): 57 nM
IC50 (p-Akt1 in LNCaP cells): 7100 nM
IC50 (Akt1): > 30000 nM
IC50 (Akt2): 1100 nM
IC50 (p-Akt2 in WM115 cells): 1200 nM

CN([C@H]1CC[C@H](CC(=O)Nc2cnc(-c3ccc(C(C)(C)N)cc3)c(-c3ccccc3)c2)CC1)S(C)(=O)=O [Example A25, N-(6-(4-(2-aminopropan-2-yl)phenyl)-5-phenylpyridin-3-yl)-2-(trans-4-(N-methylmethylsulfonamido)cyclo-hexyl)acetamide]
IC50 (p-Akt3 in WM115 cells): 260 nM
IC50 (Akt3): 560 nM
IC50 (p-Akt1 in LNCaP cells): > 15000 nM
IC50 (Akt1): > 30000 nM
IC50 (Akt2): 5100 nM
IC50 (p-Akt2 in WM115 cells): 5400 nM

CC(=O)N(C)[C@H]1CC[C@H](CC(=O)Nc2cnc(-c3ccc(C(C)(C)N)c(F)c3)c(-c3ccccc3)c2)CC1 [Example 31, N-(6-(4-(2-aminopropan-2-yl)-3-fluorophenyl)-5-phenylpyridin-3-yl)-2-(trans-4-(N-methylacetamido)cyclohexyl)acetamide]
IC50 (p-Akt3 in WM115 cells): 440 nM
IC50 (Akt3): 1700 nM
IC50 (p-Akt1 in LNCaP cells): > 30000 nM
IC50 (Akt1): > 30000 nM
IC50 (Akt2): > 15000 nM
IC50 (p-Akt2 in WM115 cells): > 30000 nM

CCN(C(C)=O)[C@H]1CC[C@H](CC(=O)Nc2cc(-c3ccccc3)c(-c3ccc([C@]4(N)C[C@](C)(O)C4)cc3)nn2)CC1 [Example 106, N-(6-(4-(trans-1-amino-3-hydroxy-3-methylcyclobutyl)phenyl)-5-phenylpyridazin-3-yl)-2-(trans-4-(N-ethylacetamido)cyclohexyl)acetamide]
IC50 (p-Akt3 in WM115 cells): 25 nM
IC50 (Akt3): 8 nM
IC50 (p-Akt1 in LNCaP cells): 4000 nM
IC50 (Akt1): > 13000 nM
IC50 (Akt2): 210 nM
IC50 (p-Akt2 in WM115 cells): 1500 nM

COC(=O)N(C)[C@H]1CC[C@H](CC(=O)Nc2cnc(-c3ccc([C@]4(N)C[C@](C)(O)C4)cc3)c(-c3ccccc3)c2)CC1 [Example 44, Methyl (trans-4-(2-((6-(4-(trans-1-amino-3-hydroxy-3-methylcyclobutyl)phenyl)-5-phenylpyridin-3-yl)amino)-2-oxoethyl)cyclohexyl)(methyl)carbamate]
IC50 (p-Akt3 in WM115 cells): 6 nM
IC50 (Akt3): 22 nM
IC50 (p-Akt1 in LNCaP cells): 1100 nM
IC50 (Akt1): 1200 nM
IC50 (Akt2): 110 nM
IC50 (p-Akt2 in WM115 cells): 350 nM

NC1(c2ccc(-c3cnc(NC(=O)C[C@H]4CC[C@H](N5CCOC5=O)CC4)cc3-c3ccccc3F)cc2)CCC1 [Example A65, N-(5-(4-(1-aminocyclobutyl)phenyl)-4-(2-fluorophenyl)pyridin-2-yl)-2-(trans-4-(2-oxooxazolidin-3-yl)cyclohexyl)acetamide]
IC50 (p-Akt3 in WM115 cells): 37 nM
IC50 (Akt3): 17 nM
IC50 (p-Akt1 in LNCaP cells): > 30000 nM
IC50 (Akt1): > 30000 nM
IC50 (Akt2): 270 nM
IC50 (p-Akt2 in WM115 cells): 570 nM

NC1(c2ccc(-c3nnc(NC(=O)C[C@H]4CC[C@H](N5CCOC5=O)CC4)cc3-c3ccccc3)cc2)CCC1 [Example 66, N-(6-(4-(1-aminocyclobutyl)phenyl)-5-phenylpyridazin-3-yl)-2-(trans-4-(2-oxooxazolidin-3-yl)cyclohexyl)acetamide]
IC50 (p-Akt3 in WM115 cells): 48 nM
IC50 (Akt3): 5 nM
IC50 (p-Akt1 in LNCaP cells): 9800 nM
IC50 (Akt1): 7200 nM
IC50 (Akt2): 150 nM
IC50 (p-Akt2 in WM115 cells): 940 nM
